Literature values as cited in PMC8623851, “The Structural Determinants for α1-Adrenergic/Serotonin Receptors Activity among Phenylpiperazine-Hydantoin Derivatives” (Molecules, 2021).

Assays:
[1] = target: α1-receptor; set-up: method as in PMID 31383628, PMID 29425815; conditions: previously reported arylpiperazine hydantoin derivatives; cited from earlier work
[2] = target: human 5-HT7b receptor (Homo sapiens, UniProt P34969); set-up: expressed in transfected cells; host or cells: HEK-293; method as in PMID 31383628, PMID 29425815; conditions: previously reported arylpiperazine hydantoin derivatives; read-out: Ki 5-HT7; cited from earlier work
Chain of human 5-HT7b receptor (P34969 1-432): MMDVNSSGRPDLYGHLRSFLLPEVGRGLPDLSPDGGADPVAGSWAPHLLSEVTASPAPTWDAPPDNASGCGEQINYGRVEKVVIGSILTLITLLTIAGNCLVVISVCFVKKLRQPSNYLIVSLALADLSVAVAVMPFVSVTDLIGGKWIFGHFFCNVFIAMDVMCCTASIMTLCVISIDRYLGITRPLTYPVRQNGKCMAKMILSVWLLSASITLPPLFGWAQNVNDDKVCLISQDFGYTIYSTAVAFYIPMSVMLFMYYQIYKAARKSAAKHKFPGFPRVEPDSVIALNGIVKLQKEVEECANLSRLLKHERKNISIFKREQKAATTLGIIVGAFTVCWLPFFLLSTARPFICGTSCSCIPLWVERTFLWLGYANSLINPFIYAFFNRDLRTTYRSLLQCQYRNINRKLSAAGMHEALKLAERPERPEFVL

COc1ccc(C2(C)NC(=O)N(CC(O)CN3CCN(c4ccccc4OC)CC3)C2=O)cc1 (centres unmarked) [Compound 3]
Ki [1]: 0.53 µM
Ki [2]: 0.008 µM
